The results in this text go back to publication PMC4824752 (Structure (London, England : 1993), 2015).

SMILES strings stand for the structures.

Test [1] deals with ELIC aliphatic-to-aromatic mutants at the M4-M1/M3 interface. To be noted: Fig. S4.
Test [2] relates to GLIC aromatic-to-Ala mutants at the M4-M1/M3 interface. To be noted: Fig. S4.
Another test addresses ELIC I319F/V260Y (Dickeya chrysanthemi, UniProt P0C7B7, I319F/V260Y). Type of test: cell-based. The settings on record: read-out: EC50, concentration of cysteamine to elicit half maximal channel gating; ELIC I319F/V260Y double mutant, oocytes.
The next test deals with ELIC G318F/V260Y (Dickeya chrysanthemi, UniProt P0C7B7, G318F/V260Y). Type of test: cell-based. The settings on record: read-out: EC50, concentration of cysteamine to elicit half maximal channel gating; ELIC G318F/V260Y double mutant, oocytes.
In a further test the target is ELIC L308W (Dickeya chrysanthemi, UniProt P0C7B7, L308W). The experiment in a line: Two-electrode voltage clamp dose response to cysteamine, ELIC L308W mutant. Type of test: cell-based. A general note: In two-electrode clamp one electrode senses voltage and the other passes current.
In test [3] the test system is ELIC with the entire aromatic network of GLIC. Type of test: cell-based. The settings on record: read-out: EC50, concentration of cysteamine to elicit half maximal channel gating, oocytes.
The next test concerns the target wild type ELIC (Dickeya chrysanthemi, UniProt P0C7B7). The class given is cell-based. To be noted: read-out: EC50, concentration of cysteamine to elicit half maximal channel gating, oocytes, whole cell currents.
Test [4] concerns human muscle-type nAChR C418W. The class given is cell-based. To be noted: C418W relative to wild type.

`CC(C)c1cccc(C(C)C)c1O` [propofol, 2,6 diisopropylphenol]: in test [1], the “effect of aliphatic-to-aromatic substitutions on propofol inhibition” value is “None of the aromatic-to-Ala substitutions at the M4-M1/M3 interface of GLIC or the aliphatic-to-aromatic substitutions at the same interface in ELIC, however, had a major effect on propofol inhibition”. Also, the “effect of aromatic-to-Ala substitutions on propofol inhibition” value in test [2] is on record as “None of the aromatic-to-Ala substitutions at the M4-M1/M3 interface of GLIC or the aliphatic-to-aromatic substitutions at the same interface in ELIC, however, had a major effect on propofol inhibition”.

`NCCS` [cysteamine]: the EC50 came to 130 µM at ELIC I319F/V260Y; 130 µM on ELIC G318F/V260Y; 290 ± 50 µM on ELIC L308W (read-out: EC50, concentration of cysteamine to elicit half maximal channel gating, ELIC L308W, oocytes); 150 ± 40 µM in test [3]; 940 ± 160 µM at wild type ELIC. Also, the “magnitude of the L308W gain of function relative to the wild type ELIC” value at ELIC L308W (L308W relative to wild type ELIC) is on record as ~5 fold.

Regarding `CC(=O)OCC[N+](C)(C)C` [acetylcholine], the “potentiation of nAChR channel function by C418W (EC50 wild type vs C418W)” value in test [4] is on record as “roughly 25 fold”.
